Measurements reported in ChEMBL document CHEMBL6134880, “Targeting Oncogenic Pathways: Advances in KRAS, CDK, EGFR, and PROTAC-Based Therapies” (ACS Med Chem Lett, 2025).

Tests used:
[1] = (§1) Inhibition of GST-tagged KRAS G12V mutant (2 to 169 residues) (unknown origin)/SOS1 catalytic domain (564 to 1069 residues) (unknown origin) protein-protein interaction preincubated with compound for 60 mins followed by SOS1 and GTP-DY-647P1 addition and measured after 90 mins by fluorescence based nucleotide exchange assay; design: species or system Homo sapiens
SOS1-KRAS = SOS1-KRAS (Homo sapiens, UniProt P01116, G12D); assay: as §1, with “G12D” for “G12V”, “30” for “90”; type: protein-complex assay

Compound | IC50 [1] | IC50 (SOS1-KRAS)
N#Cc1c(N)sc2c1C1(CC2)CN(c2nc(OCC3(CN4CCOCC4)CC3)nc(N3C[C@H]4CC[C@@H](C3)N4)n2)C1 | 10 nM | < 10 nM
C=C1CN2CCCC2(COc2nc(N3CC4(CCc5sc(N)c(C#N)c54)C3)nc(N3CCC[C@@](C)(O)C3)n2)C1 (some centres undefined) | < 10 nM | < 10 nM
CC1(O)CCCCN(c2nc(OC[C@@]34CCCN3C[C@H](F)C4)nc(N3CC4(CCc5sc(N)c(C#N)c54)C3)n2)C1 (some centres undefined) | < 10 nM | 10 nM
C[C@@]1(O)CCCN(c2nc(OC[C@@]34CCCN3C[C@H](F)C4)nc(N3CC4(C3)SCc3sc(N)c(C#N)c34)n2)C1 | < 10 nM | < 10 nM
N#Cc1c(N)sc2c1C1(CC2)CN(c2nc(OC[C@@]34CCCN3C[C@H](F)C4)nc(N3CCCCC(O)C3)n2)C1 (some centres undefined) | < 10 nM | 10 nM
N#Cc1c(N)sc2c1C1(CC2)CN(c2nc(OCC3(CN4CCOCC4)CC3)nc(N3CCCC4(C3)NC(=O)NC4=O)n2)C1 (centres undefined) | < 10 nM | < 10 nM
C[C@@]1(O)CCCN(c2nc(OC[C@@]34CCCN3C[C@H](F)C4)nc(N3CC4(CCc5sc(N)c(C#N)c54)C3)n2)C1 | < 10 nM | < 10 nM

Next, values leading:

IC50 [1] | IC50 (SOS1-KRAS) | Compound
< 10 nM | 10 nM | N#Cc1c(N)sc2c1C1(CC2)CN(c2nc(OC[C@@]34CCCN3C[C@H](F)C4)nc(N3CCCC(C#N)CC3)n2)C1 (some centres undefined)
< 10 nM | < 10 nM | C[C@@]1(O)C[C@@H](O)CN(c2nc(OC[C@@]34CCCN3C[C@H](F)C4)nc(N3CC4(CCc5sc(N)c(C#N)c54)C3)n2)C1
< 10 nM | < 10 nM | CN(C)CC1(COc2nc(N3CC4(CCc5sc(N)c(C#N)c54)C3)nc(N3CCC[C@@](C)(O)C3)n2)CC1(F)F (some centres undefined)
< 10 nM | < 10 nM | CC1(O)CCN(c2nc(OCC3(CN4CCOCC4)CC3)nc(N3CC4(CCc5sc(N)c(C#N)c54)C3)n2)CC1
< 10 nM | < 10 nM | N#Cc1c(N)sc2c1C1(CC2)CN(c2nc(OC[C@@]34CCCN3C[C@H](F)C4)nc(N3CCCC4(C3)NC(=O)NC4=O)n2)C1 (some centres undefined)
